Test results published in patent US11377441B2, “Covalent inhibitors of KRAS” (Araxes Pharma LLC, priority 2017, dated 2022).

Target: T1, KRAS G12C 1-169, his-tagged protein, GDP-loaded (Homo sapiens, UniProt P01116, G12C)
T1 construct: KRAS G12C 1-169, his-tagged protein, GDP-loaded
Assay: Biochemical assay: covalent modification of KRAS G12C measured by mass spectrometry (RapidFire/TOF or Q-Exactive)
Format: binding
Details: covalent binding to (modification of) KRAS G12C after a ten minute incubation period
Summary of the method: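 Intact-mass readout (TOF or Q-Exactive, charge-envelope deconvolution) gives percent covalent adduct from modified and unmodified species. Compound at 10, 30 or 100 μM was incubated at room temperature for 10 min to 24 h with 2 μM or 0.5 μM GDP-bound KRAS G12C 1-169 in Hepes/NaCl/MgCl2 buffer, then acid-quenched.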

| Compound | Binding % |
| --- | --- |
| C=CC(=O)N1C[C@H](C)N(c2nc(OC[C@@H]3CCCN3CC3CC3)nc3c(F)c(-c4c(C)ccc5cnn(C)c45)c(Cl)cc23)C[C@H]1C [Compound 239, 1-((2R,5S)-4-(6-chloro-2-(((S)-1-(cyclopropylmeth-yl)pyrrolidin-2-yl)methoxy)-7-(1,6-dimethyl-1H-indazol-7-yl)-8-fluoroquinazolin-4-yl)-2,5-dimethylpiperazin-1-yl)prop-2-en-1-one] | +++ (+++ indicates binding activity greater than 80%) |
| C=CC(=O)N1C[C@H](C)N(c2nc(C#CCN(C)C)nc3c(F)c(-c4c(C)ccc5[nH]nc(C6CC6)c45)c(Cl)cc23)C[C@H]1C [Compound 240, 1-((2R,5S)-4-(6-chloro-7-(3-cyclopropyl-5-methyl-1H-indazol-4-yl)-2-(3-(dimethylamino)prop-1-ylnyl)-8-fluoroquinazolin-4-yl)-2,5-dimethylpiperazin-1-yl)prop-2-en-1-one] | + (+ indicates binding activity greater than 0% and up to 50%) |
| C=CC(=O)N1C[C@H](C)N(c2nc(OC[C@H]3CC(F)(F)CN3C)nc3c(F)c(-c4c(C)ccc5cnn(C)c45)c(Cl)cc23)C[C@H]1C [Compound 241, 1-((2R,5S)-4-(6-chloro-2-(((R)-4,4-difluoro-1-methylpyrrolidin-2-yl)methoxy)-7-(1,6-dimethyl-1H-indazol-7-yl)-8-fluoroquinazolin-4-yl)-2,5-dimethylpiperazin-1-yl)prop-2-en-1-one] | + (+ indicates binding activity greater than 0% and up to 50%) |
| C=CC(=O)N1C[C@H](C)N(c2nc(N3CC(C(N)=O)C3)nc3c(F)c(-c4c(C)ccc5cnn(C)c45)c(Cl)cc23)C[C@H]1C [Compound 244, 1-(4-((2S,5R)-4-acryloyl-2,5-dimethylpiperazin-1-yl)-6-chloro-7-(1,6-dimethyl-1H-indazol-7-yl)-8-fluoroquinazolin-2-yl)azetidine-3-carboxamide] | ++ (++ indicates binding activity from 50 to 80%) |
| C=CC(=O)N1C[C@H](C)N(c2nc(OC[C@@H]3CCCN3C(C)C)nc3c(F)c(-c4c(C)ccc5[nH]nc(C)c45)c(Cl)cc23)C[C@H]1C [Compound 247, 1-((2R,5S)-4-(6-chloro-7-(3,5-dimethyl-1H-indazol-4-yl)-8-fluoro-2-(((S)-1-isopropylpyrrolidin-2-yl)methoxy)quinazolin-4-yl)-2,5-dimethylpiperazin-1-yl)prop-2-en-1-one] | ++ (++ indicates binding activity from 50 to 80%) |
| C=CC(=O)N1C[C@H](C)N(c2nc(NC(C)=O)nc3c(F)c(-c4c(C)ccc5cnn(C)c45)c(Cl)cc23)C[C@H]1C [Compound 256, N-(4-((2S,5R)-4-acryloyl-2,5-dimethylpiperazin-1-yl)-6-chloro-7-(1,6-dimethyl-1H-indazol-7-yl)-8-fluoroquinazolin-2-yl)acetamide] | ++ (++ indicates binding activity from 50 to 80%) |
| C=CC(=O)N1C[C@H](C)N(c2nc(N3CC(C(N)=O)C3)nc3c(F)c(-c4c(C)ccc5[nH]nc(C6CC6)c45)c(Cl)cc23)C[C@H]1C [Compound 257, 1-(4-((2S,5R)-4-acryloyl-2,5-dimethylpiperazin-1-yl)-6-chloro-7-(3-cyclopropyl-5-methyl-1H-indazol-4-yl)-8-fluoroquinazolin-2-yl)azetidine-3-carboxamide] | ++ (++ indicates binding activity from 50 to 80%) |
| C=CC(=O)N1C[C@H](C)N(c2nc(C#CCOC)nc3c(F)c(-c4c(C)ccc5cnn(C)c45)c(Cl)cc23)C[C@H]1C [Compound 258, 1-((2R,5S)-4-(6-chloro-7-(1,6-dimethyl-1H-indazol-7-yl)-8-fluoro-2-(3-methoxyprop-1-ynyl)quinazolin-4-yl)-2,5-dimethylpiperazin-1-yl)prop-2-en-1-one] | +++ (+++ indicates binding activity greater than 80%) |
| C=CC(=O)N1C[C@H](C)N(c2nc(NC(C)=O)nc3c(F)c(-c4c(C)ccc5[nH]nc(C6CC6)c45)c(Cl)cc23)C[C@H]1C [Compound 259, N-(4-((2S,5R)-4-acryloyl-2,5-dimethylpiperazin-1-yl)-6-chloro-7-(3-cyclopropyl-5-methyl-1H-indazol-4-yl)-8-fluoroquinazolin-2-yl)acetamide] | ++ (++ indicates binding activity from 50 to 80%) |
| C=CC(=O)N1C[C@H](C)N(c2nc(NC(=O)CN(C)C)nc3c(F)c(-c4c(C)ccc5cnn(C)c45)c(Cl)cc23)C[C@H]1C [Compound 260, N-(4-((2S,5R)-4-acryloyl-2,5-dimethylpiperazin-1-yl)-6-chloro-7-(1,6-dimethyl-1H-indazol-7-yl)-8-fluoroquinazolin-2-yl)-2-(dimethylamino)aceta-mide] | +++ (+++ indicates binding activity greater than 80%) |
| C=CC(=O)N1C[C@H](C)N(c2nc(N3CC(N(C)C)C3)nc3c(F)c(-c4cccc5c4N(C)C(=O)C5)c(Cl)cc23)C[C@H]1C [Compound 262, 7-(4-((2S,5R)-4-acryloyl-2,5-dimethylpiperazin-1-yl)-6-chloro-2-(3-(dimethylamino)azetidin-1-yl)-8-fluoroquinazolin-7-yl)-1-methylindolin-2-one] | + (+ indicates binding activity greater than 0% and up to 50%) |
| C=CC(=O)N1C[C@H](C)N(c2nc(N3CC(N(C)C)C3)nc3c(F)c(-c4c(C)ccc5c4NC(=O)C5)c(Cl)cc23)C[C@H]1C [Compound 263, 7-(4-((2S,5R)-4-acryloyl-2,5-dimethylpiperazin-1-yl)-6-chloro-2-(3-(dimethylamino)azetidin-1-yl)-8-fluoroquinazolin-7-yl)-6-methylindolin-2-one] | + (+ indicates binding activity greater than 0% and up to 50%) |
| C=CC(=O)N1C[C@H](C)N(c2nc(OC3CC(N(C)C)C3)nc3c(F)c(-c4c(C)ccc5[nH]ncc45)c(Cl)cc23)C[C@H]1C (stereo partly drawn) [Compound 264, 1-((2R,5S)-4-(6-chloro-2-(3-(dimethylamino)cyclo-butoxy)-8-fluoro-7-(5-methyl-1H-indazol-4-yl)quinazolin-4-yl)-2,5-dimethylpiperazin-1-yl)prop-2-en-1-one] | +++ (+++ indicates binding activity greater than 80%) |
| C=CC(=O)N1C[C@H](C)N(c2nc(N3CC(N(C)C)C3)nc3c(F)c(N4CCCc5ccccc54)c(Cl)cc23)C[C@H]1C [Compound 265, 1-((2R,5S)-4-(6-chloro-7-(3,4-dihydroquinolin-1(2H)-yl)-2-(3-(dimethylamino)azetidin-1-yl)-8-fluoroquinazolin-4-yl)-2,5-dimethylpiperazin-1-yl)prop-2-en-1-one] | ++ (++ indicates binding activity from 50 to 80%) |
| C=CC(=O)N1CCN(c2nc(N3CC(N(C)C)C3)nc3c(F)c(-c4c(C)ccc5cn[nH]c45)c(Cl)cc23)CC1CC#N (stereo not shown) [Compound 266, 2-(1-acryloyl-4-(6-chloro-2-(3-(dimethylamino)azetidin-1-yl)-8-fluoro-7-(6-methyl-1H-indazol-7-yl)quinazolin-4-yl)piperazin-2-yl)acetonitrile] | ++ (++ indicates binding activity from 50 to 80%) |
| C=CC(=O)N1CCN(c2nc(N3CC(N(C)C)C3)nc3c(F)c(-c4c(C)ccc5[nH]ncc45)c(Cl)cc23)CC1CC#N (stereo not shown) [Compound 267, 2-(1-acryloyl-4-(6-chloro-2-(3-(dimethyalmino)azetidin-1-yl)-8-fluoro-7-(5-methyl-1H-indazol-4-yl)quinazolin-4-yl)piperazin-2-yl)acetonitrile] | +++ (+++ indicates binding activity greater than 80%) |
